Measured values taken from patent US20060094059A1, “Methods for identifying new drug leads and new therapeutic uses for known drugs” (Odyssey Thera, Inc., priority 2004, published 2006).
Where two headings read alike, the source gives them in different places.

Columns and labels:
[1] = tested on: CDC42:PAK4 complexes; experiment: Protein-fragment complementation assay CDC42:PAK4; type: cell-based, human; conditions: hit in CDC42/PAK4 assay; drugs screened at 10 micromolar
Text: (§1) To construct dynamic assays for protein-protein complexes, we used a protein-fragment complementation assay strategy (PCAs) in intact human cells. (A variety of other suitable assays, and reporter options, are described in detail below.) The principle of PCA is that complementary polypeptide fragments (F[1] and F[2]) of a reporter protein or enzyme will fold into an active form only if fused to two proteins which interact and bring the complementary fragments of the reporter protein into proximity. Reconstitution of the fragments of the reporter protein generates a fluorescent signal that can be quantified in intact cells, and the amount of the signal is proportional to the amount of the protein-protein complex used in constructing the assay. Given a suitable reporter type, the subcellular location of the complex can also be measured.
(§2) Reporter fragments for PCA were generated by oligonucleotide synthesis (Blue Heron Biotechnology, Bothell, Wash.), starting with the sequence of yellow fluorescent protein (YFP). First, oligonucleotides coding for polypeptide fragments YFP[1]and YFP[2] […] Next, PCR mutagenesis was used to generate the mutant fragments IFP[1] and IFP[2]. The IFP[1] fragment corresponds to YFP[1]-(F46L, F64L, M153T) and the IFP[2] fragment corresponds to YFP[2]-(V163A, S175G). […] The YFP[1], YFP[2], IFP[1] and IFP[2] fragments were amplified by PCR to incorporate restriction sites and a linker sequence, described below, in configurations that would allow fusion of a gene of interest to either the 5′- or 3′-end of each reporter fragment. The reporter-linker fragment cassettes were subcloned into a mammalian expression vector (pcDNA3.1Z, Invitrogen) that had been modified to incorporate the replication origin (oriP) of the Epstein Barr virus (EBV). […] Additionally, these vectors still retain the SV40 origin, allowing for episomal expression in cell lines expressing the SV40 large T antigen (e.g. HEK293T, Jurkat or COS).
(§3) PCA fusion constructs were prepared for a proteins known to participate in cellular pathways that have been described in the scientific literature as being linked to cancer. The selection of protein-protein complexes used, and the rationale for their use, is provided in Table 1 and the gene identifiers for the cDNAs used in assay construction are provided in Table 2. The full coding sequence for each gene of interest was amplified by PCR from a sequence-verified full-length cDNA. Resulting PCR products were column purified (Centricon), digested with appropriate restriction enzymes to allow directional cloning, and fused in-frame to either the 5′ or 3′-end of YFP[1], YFP[2], IFP[1] or IFP[2] through a linker encoding a flexible 10 amino acid peptide (Gly.Gly.Gly.Gly.Ser)2. […] Recombinants in the host strains DH5-alpha (Invitrogen, Carlsbad, Calif.) or XL1 Blue MR (Stratagene, La Jolla, Calif.) were screened by colony PCR, and clones containing inserts of the correct size were subjected to end sequencing to confirm the presence of the gene of interest and in-frame fusion to the appropriate reporter fragment. A subset of fusion constructs were selected for full-insert sequencing by primer walking. DNAs were isolated using Qiagen MaxiPrep kits (Qiagen, Chatsworth, Calif.). PCR was used to assess the integrity of each fusion construct, by combining the appropriate gene-specific primer with a reporter-specific primer to confirm that the correct gene-fusion was present and of the correct size with no internal deletions.
(§4) HEK293 cells were maintained in MEM alpha medium (Invitrogen) supplemented with 10% FBS (Gemini Bio-Products), 1% penicillin, and 1% streptomycin, and grown in a 37° C. incubator equilibrated to 5% CO2. […] Up to 100 ng of the complementary YFP or IFP-fragment fusion vectors were co-transfected using Fugene 6 (Roche) according to the manufacturer's protocol.

[2] = tested on: PAK4:Cofilin; experiment: Protein-fragment complementation assay PAK4:Cofilin; type: cell-based, human; conditions: hit in PAK4/CFL assay; drugs screened at 10 micromolar
Text: as §1, §2, §3, §4

[3] = tested on: pancreatic carcinoma (MIA PaCa-2) cells; experiment: MTT proliferation assay, pancreatic; type: cell-based, Human; conditions: Tumor Cell Pancreatic (MIA PaCa-2), 120 hours, read-out: Anti-proliferative IC-50
Description: (§5) Cells were maintained in various media as follows: A549, LoVo and PC-3 (Ham's F12K medium with 2 mM L-glutamine and 1.5 g/L sodium bicarbonate), MIA PaCa-2 (Dulbecco's modified Eagle's medium with 4 mM L-glutamine and 4.5 g/L glucose), U87-MG (MEM+Earle's BSS). Medium for each cell line was supplemented with 10% FBS and […] Penecillin/Streptomycin. All cells were grown in incubators set at 37° C., 5% CO2. Thiazolyl Blue Tetrazolium Bromide (MTT) based proliferation assays were performed to assess the anti-proliferative activities of the compounds on these cells. Cells were seeded in 96 well plates at a density of 750 cells/well 24 hours prior to compound treatment. The cells were incubated with varying concentrations of compounds for 120 hours. […] Drug treatment was performed in 5 replicate wells. Background absorbance was established by wells containing medium but no cells. Vehicle (DMSO) only was used as control. MTT (Sigma-Aldrich, St. Louis, Mo.) was added to each well at a final concentration of 0.5 mg/ml. Following a 2 hour incubation at 37° C., medium in the wells was replaced with 0.15 ml DMSO. The plates were agitated for 15 min using a microtiter plate shaker.

[4] = tested on: non-small cell lung carcinoma (A549) cells; experiment: MTT proliferation assay, NSCLC; type: cell-based, Human; conditions: Tumor Cell NSCLC (A549), 120 hours, read-out: Anti-proliferative IC-50
Description: as §5

[5] = tested on: colon adenocarcinoma (LoVo) cells; experiment: MTT proliferation assay, colon; type: cell-based, Human; conditions: Tumor Cell Colon (LoVo), 120 hours, read-out: Anti-proliferative IC-50
Description: as §5

[6] = tested on: prostate adenocarcinoma (PC-3) cells; experiment: MTT proliferation assay, prostate; type: cell-based, Human; conditions: Tumor Cell Prostate (PC-3), MTT, 120 hours, read-out: Anti-proliferative IC-50
Description: (§6) We used these methods to mine the known pharmacopeia for drugs with previously-unsuspected activity against cancer-related pathways. […] Hits from our cell-based screens were tested for antiproliferative activity in up to 5 different human tumor cell lines, as follows. First, drugs with significant activity in the cellular screen(s) were tested for their ability to block proliferation of a human tumor cell line (PC-3) at an initial concentration of 10 micromolar. For drugs with antiproliferative activity in PC-3 cells, dose-response curves to determine the IC50 for antiproliferative activity and additional tumor cell lines were tested to determine the breadth of activity. Methods for assessing the antiproliferative activity of the cell-based drug ‘hits’ are described below.
as §5

[7] = tested on: human tumor cell lines; experiment: MTT proliferation assay and phase contrast images, cell line not given (FIGS. 5-10); type: cell-based; conditions: treated cells vs. DMSO control, cell line not named
Description: as §6
Cells were maintained in various media as follows: A549, LoVo and PC-3 (Ham's F12K medium with 2 mM L-glutamine and 1.5 g/L sodium bicarbonate), MIA PaCa-2 (Dulbecco's modified Eagle's medium with 4 mM L-glutamine and 4.5 g/L glucose), U87-MG (MEM+Earle's BSS). Medium for each cell line was supplemented with 10% FBS and […] Penecillin/Streptomycin. All cells were grown in incubators set at 37° C., 5% CO2. Thiazolyl Blue Tetrazolium Bromide (MTT) based proliferation assays were performed to assess the anti-proliferative activities of the compounds on these cells. Cells were seeded in 96 well plates at a density of 750 cells/well 24 hours prior to compound treatment. The cells were incubated with varying concentrations of compounds for 120 hours. Compound concentrations range from 0.03 to 100 microM (half log increments) except for alpha-Tomatine (0.001-100 microM, half log increments), Neriifolin (0.0002-100 microM) and Peruvoside (0.01-100 microM). Drug treatment was performed in 5 replicate wells. Background absorbance was established by wells containing medium but no cells. Vehicle (DMSO) only was used as control. MTT (Sigma-Aldrich, St. Louis, Mo.) was added to each well at a final concentration of 0.5 mg/ml. Following a 2 hour incubation at 37° C., medium in the wells was replaced with 0.15 ml DMSO. The plates were agitated for 15 min using a microtiter plate shaker. […] Mean absorbance values were calculated from 5 replicate wells of each drug treatment following subtraction of background absorbance from blank samples and plotted as a percentage of control.

[8] = tested on: EGFR:Grb2; experiment: Cell-based assay EGFR:Grb2; set-up: species or system human; conditions: hit in EGFR/Grb2 assay; drugs screened at 10 micromolar
Text: as §1
(§7) Reporter fragments for PCA were generated by oligonucleotide synthesis (Blue Heron Biotechnology, Bothell, Wash.), starting with the sequence of yellow fluorescent protein (YFP). First, oligonucleotides coding for polypeptide fragments YFP[1]and YFP[2] […] Next, PCR mutagenesis was used to generate the mutant fragments IFP[1] and IFP[2]. The IFP[1] fragment corresponds to YFP[1]-(F46L, F64L, M153T) and the IFP[2] fragment corresponds to YFP[2]-(V163A, S175G). […]

[9] = tested on: HSP90:Eef2k; experiment: Protein-fragment complementation assay Hsp90:Eef2k; type: cell-based, human; conditions: hit in HSP90/Eef2k assay; drugs screened at 10 micromolar
Text: as §1
as §2, with “COS). […]” for “COS).”

[10] = tested on: MAX:MYC; experiment: Protein-fragment complementation assay MAX:MYC; type: cell-based, human; conditions: hit in MYC/MAX assay; drugs screened at 10 micromolar
Text: as §1, §7

[11] = tested on: CDC25C:Cdc2; experiment: Protein-fragment complementation assay CDC25C:Cdc2; type: cell-based, human; conditions: hit in CDC2/CDC25C assay; drugs screened at 10 micromolar
Text: as §1, §7

[12] = tested on: BAD:BID; experiment: Protein-fragment complementation assay BAD:BID; type: cell-based, human; conditions: hit in BAD/BID assay; drugs screened at 10 micromolar
Text: as §1, §7

[13] = tested on: glioblastoma (U-87 MG) cells; experiment: MTT proliferation assay, glioblastoma; type: cell-based; conditions: Homo sapiens, Tumor Cell Glioblastoma (U-87 MG), 120 hours, read-out: Anti-proliferative IC-50
Description: as §5

[14] = tested on: Cofilin:LIMK2; experiment: Protein-fragment complementation assay Cofilin:LIMK2; type: cell-based, human; conditions: hit in Cofilin/LIMK2 assay; drugs screened at 10 micromolar
Text: as §1, §7

[15] = tested on: Wee1:Cdc2; experiment: Protein-fragment complementation assay Wee1:Cdc2; type: cell-based, human; conditions: hit in Wee1/Cdc2 assay; drugs screened at 10 micromolar
Text: as §1, §7

[16] = tested on: Chk1:CDC25C; experiment: Protein-fragment complementation assay Chk1:CDC25C; type: cell-based, human; conditions: hit in CDC25C/Chk1 assay (with or without CPT not stated); drugs screened at 10 micromolar
Text: as §1, §7

SMILES | IC50 ([3]; Homo sapiens) [nM] | IC50 ([4]; Homo sapiens) [nM] | IC50 ([5]; Homo sapiens) [nM] | IC50 [13] [nM] | IC50 ([6]; Homo sapiens) [nM] | Assay activity [1] | Assay activity [2] | other results
CO[C@H]1[C@H](O)[C@H](O[C@H]2CC[C@@]3(C)[C@H](CC[C@@H]4[C@@H]3CC[C@]3(C)[C@@H](C5=CC(=O)OC5)CC[C@]43O)C2)O[C@@H](C)[C@@H]1O [Neri$$olin, Neriifolin] |  |  |  |  |  | CDC42/PAK4 | PAK4/CFL, | IC50 [3]: 4 nM; IC50 [4]: 5 nM; IC50 [5]: 18 nM; IC50 [6]: 11 nM
CN[C@H]1CC[C@@H](c2ccc(Cl)c(Cl)c2)c2ccccc21 [Sertraline] |  |  |  |  |  |  |  | cell count (phase contrast images) [7]: reduced the cell count; Assay activity [8]: EGFR/Grb2,; Assay activity [9]: Eef2K/hsp90,; Assay activity [10]: MAX/MYC; Assay activity [11]: CDC2/CDC25C,; Assay activity [12]: BAD/BID,
Fc1ccc(C(c2ccc(F)cc2)N2CCN(C/C=C/c3ccccc3)CC2)cc1 [Flunarizine] |  |  |  |  |  | CDC42/PAK4 | PAK4/CFL, | 
CO[C@H]1[C@H](O)[C@H](O[C@H]2CC[C@@]3(C=O)[C@H](CC[C@@H]4[C@@H]3CC[C@]3(C)[C@@H](C5=CC(=O)OC5)CC[C@]43O)C2)O[C@@H](C)[C@@H]1O [Peruvoside] | 3 | 4 | 9 | 2 | 5 |  |  | Assay activity [15]: Wee1/Cdc2

The next lines start with results.

IC50 ([3]; Homo sapiens) [nM] | IC50 ([4]; Homo sapiens) [nM] | IC50 ([5]; Homo sapiens) [nM] | IC50 [13] [nM] | IC50 ([6]; Homo sapiens) [nM] | SMILES | Assay activity [1] | Assay activity [2] | other results
8800 | 24300 | 25800 | 24600 | 7680 | O=C(CCCN1CC=C(n2c(=O)[nH]c3ccccc32)CC1)c1ccc(F)cc1 [Droperidol] |  | PAK4/CFL | 
 |  |  | 4600 |  | CC(C)c1c(C(=O)Nc2ccccc2)c(-c2ccccc2)c(-c2ccc(F)cc2)n1CC[C@@H](O)C[C@@H](O)CC(=O)O [Atorvastatin] |  | CFL1/PAK4 | cell count (phase contrast images) [7]: decreased the cell count; Assay activity [14]: CFL1/LIMK2,
1930 | 2230 | 1130 | 1120 | 1850 | CCCCCCCCNC(C)C(O)c1ccc(SC(C)C)cc1 (centres unmarked) [Suloctidil] | CDC42/PAK4 | PAK4/CFL, | 
377 | 230 | 1400 | 860 | 630 | CC1(C)CCC2=C(O1)c1ccccc1C(=O)C2=O [beta-Lapachone] |  |  | Assay activity [8]: EGFR/Grb2,; Assay activity [16]: CDC25C/Chk1
